Measured values: patent publication US20230149355A1, “COMPOSITIONS AND METHODS FOR MODULATING TRP CHANNEL ACTIVITY” (priority 2020, published 2023)

Columns and labels:
zebrafish EECs (Trpa1) = test: In vivo EEC calcium, Tg(neurod1:Gcamp6f) zebrafish; conditions: trpa1b-dependent
Protocol: To record in vivo EEC activity using the Tg(neurod1:Gcamp6f) system, a published protocol with slight modification (Ye et al., 2019) was used. In brief, unanesthetized zebrafish larvae were gently mounted in 3% methylcellulose. Excess water was removed and zebrafish larvae were gently positioned with right side up. Zebrafish were then moved onto an upright Leica M205 FA fluorescence stereomicroscope equipped with a Leica DFC 365FX camera. The zebrafish larvae were allowed to recover for 2 mins before 100 μL of test agent was pipetted directly in front of the mouth region. Images were then recorded every 10 seconds. The data shown in FIG. 2O-R, depicting the EEC responses to E. tarda stimulation, were obtained by mounting unanesthetized zebrafish larvae in 1% low melting agarose. A window (5×5 mm) was cut to expose the head region of the zebrafish. 10 μL of E. tarda culture [˜10^9 Colony Forming Unit (CFU)] were delivered at the zebrafish mouth area. Images were recorded every 10 secs for 20 mins. Image processing and analysis were performed using FIJI software. Time-lapse fluorescence images were first aligned to correct for experimental drift using the plugin “align slices in stack.” Normalized correlation coefficient matching and bilinear interpolation methods for subpixel translation were used for aligning slices (Tseng et al., 2012). The plugin “rolling ball background subtraction” with the rolling ball radius=10 pixels was used to remove the large spatial variation of background intensities. The Gcamp6f fluorescence intensity in the intestinal region was then calculated for each time point. The ratio of maximum fluorescence (Fmax) and the initial fluorescence (F0) was used to measure EEC calcium responses.
For EEC Trpa1 activation using the Optovin platform, zebrafish larvae were treated with 10 μM Optovin overnight. Following Optovin treatment, unanesthetized zebrafish were mounted in 1% LMA and imaged under a 780 upright Zeiss confocal microscope using 20× water objective lenses. For all the experiments, the mid-intestine region was imaged (FIG. 10D). The intestinal epithelium was selected as the region of interest (ROI) (FIG. 10A). Serial images were obtained at 1 s/frame. A 405 nm pulse of light was applied to the ROI at 1 pulse/10 s. For some experiments (FIG. 7D-F, FIG. 10B-G), the images were obtained at 10 s/frame. When measuring Optovin effects on intestinal motility in ret−/−, sox10−/− or tph1b−/− zebrafish larvae, embryos were collected from heterozygous zebrafish. ret−/− zebrafish were identified by lack of ENS and deflated swim bladder (Knight et al., 2011), sox10−/− zebrafish were identified by lack of pigment (Rolig et al., 2017), and tph1b−/− zebrafish were identified by PCR-based genotyping (Tornini et al., 2017).
To determine whether Optovin-UV or ChR2 was sufficient to activate EECs, Tg(neurod1:Gcamp6f) zebrafish were used. […] The Gcamp6f signal was recorded with 488 nm laser intensity less than 0.5. The zebrafish intestinal motility is quantified through recorded image series of zebrafish intestine using the method similar as previously described (Ganz et al., 2018). […] When calculating the mean velocity, only the mean velocity magnitude was calculated, which therefore doesn't account for the movement direction. The MTrackJ FIJI plugin was used to quantify the mean velocity magnitude (Meijering et al., 2012).

vagal sensory neurons = test: In vivo calcium imaging of vagal sensory ganglia after microgavage; parameters: species or system zebrafish
Protocol: For delivering bacterial or chemicals specifically to the intestine, the established microgavage technique (Cocchiaro and Rawls, 2013) was adopted. Zebrafish were anesthetized with 1 mg/mL α-Bungarotoxin (α-BTX) and the gavage procedure was performed as previously described using microinjection station (Cocchiaro and Rawls, 2013). For bacteria gavage experiments, 1 ml of overnight bacterial culture was harvested, pelleted, washed with PBS and resuspended in 100 ul PBS.˜8 nl was then delivered into the zebrafish intestine using microgavage. The gavaged zebrafish was then transferred into egg water and mounted in 1% LMA for imaging. For chemical gavage experiments, ˜8 nl of AITC (100 mM), indole (1 mM) and IAld (1 mM) was gavaged into the intestine.
Tg(neurod1:Gcamp6f); Tg(neurod1:TagRFP) zebrafish were used to record vagal sensory ganglia calcium activity in vivo. Zebrafish were anesthetized with 1 mg/mL α-Bungarotoxin (α-BTX) and gavaged with chemical compounds or bacteria as described (Naumann et al., 2016). Zebrafish larvae were mounted in 1% LMA and imaged under a Zeiss 780 upright confocal microscope. Z-stack images of the entire vagal ganglia were collected as serial images at 10 mins/frame and processed in FIJI. Individual vagal sensory neurons were identified and the Gcamp6f to TagRFP fluorescence ratios of individual vagal sensory neurons were calculated.

human ileum = test: Amperometric measurement of 5-HT secretion, human small intestine; conditions: 10 mM Indole
From the text: These experiments using C57BL/6J mice were approved by the Flinders University Animal Welfare Committee (number 965-19) and human ileum tissue was collected from resected small and large intestine from patients that gave written informed consent under the approval of the Southern Adelaide Clinical Human Research Ethics Committee (number 50.07) as previous (Sun et al., 2019a). Mice were euthanized at 8 to 12 weeks by isoflurane overdose followed by cervical dislocation. The duodenum was removed and placed in Krebs solution oxygenated with 95% O2, 5% CO2. A midline incision was made along the duodenum to create a flat sheet, the section was pinned with the mucosal side up in an organ bath lined with Sylgard and containing oxygenated Krebs solution. Serotonin release was measured using amperometry. A carbon-fibre electrode (5-μm diameter, ProCFE; Dagan Corporation, Minneapolis, Minn.), was lowered above the mucosa and 400 mV potential was applied to the electrode causing oxidation of serotonin (Zelkas et al., 2015). […] The change in amplitude due to serotonin oxidation was recorded using an EPC-10 amplifier and Pulse software (HEKA Electronic, Lambrecht/Pfalz, Germany), and samples at 10 kHz and low-pass filtered at 1 kHz. Data was assessed as peak current during each treatment. Data was analyzed comparing all groups using one-way ANOVA with Tukey's post-hoc test. […]

intestinal motility = test: Zebrafish intestinal motility (PIV-Lab velocity analysis); type: in vivo; conditions: indole stimulation
From the text: The zebrafish intestinal motility is quantified through recorded image series of zebrafish intestine using the method similar as previously described (Ganz et al., 2018). Intestinal p velocity and v velocity were used to estimate intestinal motility in zebrafish as previously described using the PIV-Lab MATLAB app (Ganz et al., 2018). A positive value of the μ velocity indicates an anterograde intestinal movement and a negative value of the μ velocity indicates a retrograde intestinal movement. The time-course p velocity number is plotted as heatmaps. When calculating the mean velocity, only the mean velocity magnitude was calculated, which therefore doesn't account for the movement direction. The MTrackJ FIJI plugin was used to quantify the mean velocity magnitude (Meijering et al., 2012).

Q: Which “Zebrafish EEC activation (Gcamp6f fluorescence)” value (zebrafish EECs (Trpa1)) does the source give for `c1ccc2[nH]ccc2c1` [Indole] here?
A: strongly activated

Q: What about the “Vagal sensory neuron activation in larvae lacking EECs” value (vagal sensory neurons; EEC-ablated zebrafish, enteric indole) of the same compound?
A: abrogated

Q: And the “Gcamp6f fluorescence in a subset of vagal sensory neurons” value (vagal sensory neurons; WT, enteric microgavage ~8 nl, AITC 100 mM, indole 1 mM, IAld 1 mM)?
A: increased

Q: And the “5-HT secretion in human ileum” value (human ileum)?
A: significant increase

Q: And the “Intestinal motility on stimulation of zebrafish larvae” value (intestinal motility)?
A: increases intestinal motility
